The source of these data is patent publication US20120270848A1, “Novel Compositions and Therapeutic Methods Using Same” (Galleon Pharmaceuticals, Inc., priority 2010, published 2012).

The structures appear in SMILES notation. “Also recorded” adds a separate entry of the source.

The test system of data set [1] is hypoxic ventilatory response in the rat. Briefly: Hypoxic ventilatory response to 12% O2, plethysmography. Conditions: IV infusion (Table 5: 1, 3 mg/kg/min; text: 3 mg/kg/min), compared to vehicle. Format: in vivo. As to the method: Rats with a pre-cannulated jugular vein (for administrating drugs) were acclimated to plethysmography chambers for a minimum of 60 minutes, or until animals were no longer restless. Each animal was dosed with (−)-doxapram, (+)-doxapram, or racemic doxapram via infusion into the jugular vein catheter over a period of 15 minutes, at 3 mg/kg/min at 0.020 ml/min based on a 300 gram rat. After a period of 15 minutes, an isocapnic, hypoxic mixture (12% O2 balanced N2) was administered into all chambers using a gas mixer (CWE inc. GSM-3 gas mixer) for 15 minutes. After 15 minutes, the gas mixer was turned off, resulting in normal room air pumped into the chambers. Ten minutes later, the infusion pumps were turned off, and all animals were given a 15 minute recovery period, followed by a post-study analysis of rat health and behavior. […] The small increases in minute ventilation seen towards the end of the experiment in the (−)-doxapram group (i.e. T20-T55) were associated with behavioral toxicities and therefore cannot be distinguished from non-specific side effects. Results are illustrated in FIG. 5 and Table 5.

Data set [2] relates to rats. Briefly: Observations of animal behavior and adverse effects. Format: in vivo, rat. From the text:
In Examples 1-7 described above, all rats are observed for behavioral changes and adverse effects, as recognized by those skilled in the art. Such effects include central nervous system and motor effects such as impairment, sedation, and convulsive potential, and mortality. Other effects related to bodily functions are also observable and may include changes in breathing, urination, defecation, posture, and normal cage activities (i.e., grooming, exploring, eating, etc.). […]

Data set [3] in a line: Comparative IV pharmacokinetics of a 20 min infusion. Format: in vivo. Conditions: 20 min infusion of 3 mg/kg/min IV. As to the method:
FIG. 9 is a set of graphs illustrating the IV pharmacokinetics of a 20-minute infusion (from 15 minutes to 35 minutes) of 3 mg/kg/min IV (+)-doxapram and (−)-doxapram. The upper panel pharmacokinetic data was plotted on a linear y-axis, the lower panel represents the same data plotted on a log y-axis.
The difference in efficacy and adverse events seen between the enantiomers is therefore due to genuine differences in the intrinsic pharmacodynamics (i.e. pharmacology and side effects profiles) of the enantiomers, as opposed to differential exposures/pharmacokinetics. Results are illustrated in FIG. 9.

Data set [4] concerns opioid-induced respiratory depression in the rat. The data set is described as follows: Opioid-induced respiratory depression, plethysmography (minute ventilation). Particulars: 1, 3 mg/kg/min IV infusion after 10 mg/kg IV morphine; compared to vehicle. It is filed as in vivo. As to the method:
All animal experiments were carried out according to the US law on animals care and use approved by Galleon Pharmaceuticals Institutional Animal Care and Use Committee (IACUC). Rats with pre-cannulated jugular vein (for administrating drugs) were acclimated to plethysmography chambers for a minimum of 60 minutes, or until animals were no longer restless. Each animal was dosed with morphine sulfate (10 mg/kg), dissolved in sterile water at a concentration of 10 mg/mL (supplied by Baxter Healthcare Corporation), via injection into the jugular vein catheter over a period of 5-10 seconds. After a period of 5 min, (−)-doxapram, (+)-doxapram, or racemic doxapram ([…]) was administered via infusion into the jugular vein at a rate of 0.020 mL/min for a 300 gram rat. Behavioral observations were made though the course of the experiment. After 20 min of infusion at 1 mg/kg/min, the infusion rates were tripled from 0.020 mL/min to 0.060 mL/min for all rats, based on body weight. After 20 minutes of infusion at this dose, the infusion pumps were turned off, and all animals were given a 20 minute recovery period, followed by a post-study analysis of rat health and behavior. […] The small increase in minute ventilation seen towards the end of the experiment in the (−)-doxapram group was associated with behavioral toxicities and therefore cannot be distinguished from non-specific side effects. […]

The test system is the same in data set [5]. The data set is described as follows: Opioid-induced changes in arterial blood gas parameters, arterial blood gas analysis. Format: in vivo. As to the method:
Rats with pre-cannulated jugular vein and femoral arterial catheters (for administrating drugs and obtaining blood samples respectively) were obtained from Harlan laboratories and kept at the animal facility at Galleon Pharmaceuticals until the experimental procedures. All animals experiments were carried out according to the US law on animals care and use approved by Galleon Pharmaceuticals IACUC. Each animal was dosed with morphine sulfate (10 mg/kg), dissolved in saline at a concentration of 10 mg/ml, via injection into the jugular vein over a period of 20 seconds with a 20 second flush of 0.9% NaCl saline. Prior to morphine administration, two 250 μL samples of arterial blood were aspirated from the femoral artery into a pre-heparinized syringe. The samples were analyzed on Radiometer's ABL Flex 800, where pO2, pCO2, pH, saO2 and other parameters were recorded. Aspirated volumes of arterial blood were replaced by room temperature sterile saline (˜300 μL) slowly flushed back into the femoral arterial catheter of the rodent to prevent anemia and/or dehydration. Morphine was then administered and 2 minutes later another blood sample was taken. After a period of 5 min from the administration of morphine, (−)-doxapram, (+)-doxapram or racemic doxapram (15 mg/mL) was administered via infusion into the jugular vein at a rate of 60 μL/min/300 gram rat. The infusion started at t=15 minutes and ended at t=35 minutes. Arterial blood gas analysis occurred at time points t=17, 25, 30, 37, 45, and 50 minutes. […] The small improvements in blood gas parameters seen towards the end of the experiment in the (−)-doxapram group were associated with behavioral toxicities and therefore cannot be distinguished from non-specific side effects. Results are illustrated in Table 4 and FIGS. 3-4.

Data set [6] has as its system rat. Briefly: Cardio-respiratory traces after IV bolus (respiratory flow, volumes, minute ventilation, blood pressure). Format: in vivo. As to the method:
(§1) All surgical procedures were performed under anesthesia induced by 2% isoflurane in compressed medical grade air. With rats in supine position, the right femoral vein was catheterized using polyethylene tubing (PE-50). This catheter was used for fluid and drug administration. Simultaneously, the right femoral artery was also catheterized for monitoring blood pressure. In order to measure the respiratory parameters in spontaneously breathing rats, trachea was intubated using 13 gauge tracheal tube (2.5 mm ID, Instech Solomon, Pa.).
The procedure outlined in Example 1 was used herein. […] Results are illustrated in FIG. 6.
The procedure described in Example 1 was used herein to evaluate the effect of (−)-doxapram on mean arterial blood pressure (MAP) in the rat. […] Results are illustrated in FIG. 8.

In data set [7] the test system is spontaneously breathing rats. The data set is described as follows: In vivo spirometry: cumulative dose-dependent ventilatory response (maximum peak minute ventilation). On the set-up: species or system rat. As to the method: as §1
After establishing a stable base-line at 1.5% isoflurane, cumulative dose-dependent (1, 3, 10 and 30 mg/kg) ventilatory responses to (−)-doxapram, (+)-doxapram, or racemic doxapram were generated from spontaneously breathing rats. Maximum peak minute ventilatory (MV) values at each dose from corresponding drug were calculated and used for generating ED50 values. Results are illustrated in Table 3 and FIG. 1. All the specific ventilatory stimulant activity of racemic doxapram was associated with the (+)-enantiomer.

The mark [8] stands for this setting: 3.0 mpk/min IV infusion after morphine 10 mg/kg, vs composite vehicle group, 15 min into 20 min infusion.

`CCN1CC(CCN2CCOCC2)C(c2ccccc2)(c2ccccc2)C1=O` (single isomer, unassigned; (-)) [(−)-doxapram]: the “Plethysmography (MV), Naïve and HVR: potentiation of hypoxic ventilatory response” value in data set [1] is on record as “did not; also recorded: Not active”. Moreover, the “Clonic movements (animals out of group of 6)” value in data set [2] (ABG post morphine, 3 mg/kg/min IV, 3 mg/kg) is on record as 5/6. Also, in data set [2] (Pleth., 3 mg/kg/min IV, 3 mg/kg), the “Hunching, static, increased urination & defecation (animals out of group of 6)” value is 6/6. Also, in data set [2] (Pleth., 30 mg/kg IV bolus, 30 mg/kg), the “Death (animals out of group of 6)” value is listed as 5/6. In data set [2] (at the doses tested, IV), the “adverse effects across the studies” value is “consistently produced a variety of adverse effects”. For the same molecule, the “plasma exposure (time course, maximum concentration, AUC, washout), enantiomer vs enantiomer” value in data set [3] was “directly comparable time course, maximum concentration and exposure (AUC)”. Moreover, the “Plethysmography - OIRD (MV): reversal of opioid-induced respiratory depression” value in data set [4] is on record as “does not; also recorded: Not active”. Also, in data set [5] (3 mg/kg/min IV infusion after 10 mg/kg IV morphine, compared to vehicle), the “Arterial Blood Gases - OIRD, pCO2 (mmHg) and saO2 (%): reversal of opioid-induced respiratory depression” value is “does not; also recorded: Not active”. For the same molecule, in data set [5] (setting [8]), the “PaCO2: % reversal” value is recorded as 24%, the “PaO2: % reversal” value is on record as −2%, the pH % reversal is on record as −8% and the “saO2: % reversal” value is given as −6%. In addition, in data set [6] (30 mg/kg IV bolus), the “effect on arterial blood pressure and arrhythmias” value is “pronounced reduction in arterial blood pressure together with a period of associated arrhythmias; also recorded: pronounced drop in blood pressure in rat, including a period of heart arrhythmias”; the “effect on respiratory flow, inspiratory and expiratory volume, minute ventilation” value is “only a minimal effect on respiratory flow, inspiratory and expiratory volume, and minute ventilation; also recorded: minimal ventilatory response”. Moreover, the “Cardiopulmonary response: arrhythmias” value in data set [6] (E-Phys, ≧10 mg/kg IV bolus) is listed as “Arrhythmias”. Also, the “Cardiopulmonary response: mean arterial pressure (MAP)” value in data set [6] (E-Phys, ≧10 mg/kg IV bolus, 10 mg/kg) is “MAP ↓↓”. The “ED50 (mg/kg IV), increase in minute ventilation (MV)” value in data set [7] (IV bolus, cumulative doses 1, 3, 10 and 30 mg/kg, 1.5% isoflurane, maximum peak MV values) is >200 mg/kg. For the same molecule, the “potency vs (+)-enantiomer (times less potent)” value in data set [7] (ventilatory stimulant activity, rat IV) was “at least 100 times”.
